Test results: PubChem BioAssay AID2060909 (Molecular Pharmacology Branch, DTP, NCI, 2025)
Where “and” joins values, the source holds several entries; their conditions need not be identical. Identical values can stand only once.

Test system: 362531-283-R-J2-PDC complex spheroid viability
Test: Anticancer human tumor 362531-283-R-J2-PDC patient-derived colon adenocarcinoma cell line growth inhibition [RAS]
Conditions: for viability, T/C: stronger effect = lower value
Text: RAS pathway inhibitors in Combinations in Complex Spheroids
A high-throughput screen of multi-cell type tumor spheroids was designed to identify active combinations of RAS pathway inhibitors and targeted small molecules. Complex spheroids include a stromal component modeled by human endothelial cells (HUVEC) and fibroblasts modeled by human mesenchymal stem cells (MSCs). The concentration ranges selected for each drug and investigational agent were based upon clinically achievable concentrations if the clinical Cmax of the agent was known.
Compounds. The drugs and investigational agents: abemaciclib (NSC768073), cobimetinib (NSC768068), divarasib (GDC6063, NSC841802), docetaxel (NSC628503), GDC-1971 (RLY-1971, NSC841576), gemcitabine (NSC613327), inavolisib (NSC800729), ipatasertib (NSC767898), KB-0742 (NSC834161), MRTX-1133 (NSC836407), osimertinib (NSC779217), RMC-4630 (NSC839698), RMC-6236 (NSC851965), RMC-6291 (NSC852671), Ro-3306 (NSC812927), sapanisertib (NSC764658), SN-38 (NSC673596), staurosporine (NSC755774), SY5609 (NSC837396), and tovorafenib (DAY101, NSC766906), were obtained from the National Cancer Institute (NCI) Developmental Therapeutics Program Chemical Repository. The FDA-approved anticancer drug set is available from the NCI Developmental Therapeutics Program. […] The stock solutions were prepared in dimethyl sulfoxide (DMSO, Sigma-Aldrich, St. Louis, MO, cat. D2650) at 800-fold the tested concentration and stored at -70 degrees C prior to their use. All drugs and investigational agents were tested over a range starting from a high concentration at or near the clinical Cmax and decreasing in half-log increments. If the clinical Cmax for an agent had not been determined, the highest concentration tested was 10 microM.
Cell Culture. All cells were maintained in an incubator at 37 degrees C and 5% CO2 with 95% humidity. The PDC lines were cultured according to standard operating procedures established by the NCI PDMR. All PDCs were thawed and cultured in Matrigel-coated flasks prepared with a working solution of 1X Ham's F-12 nutrient mix, without supplementation (Invitrogen, Waltham, MA, cat. 11765054), 100 U/mL penicillin-streptomycin (Invitrogen, cat. 15140122), and 2.5% Matrigel (Corning Inc., Corning, NY, cat. 354248) for the first three passages. The 362531-283-R-J2-PDC and 782815-120-R-J1-PDC lines were cultured in 6C/Colon 1B media, which includes advanced DMEM/F-12 (Thermo Fisher Scientific, cat. 12634028), 10 mM HEPES (Thermo Fisher Scientific, cat. 15630080), 1X GlutaMAX supplement (Thermo Fisher Scientific, cat. 35050061), 0.1 mg/mL primocin (InvivoGen, San Diego, CA, cat. ant-pm-2), 10% defined fetal bovine serum, heat inactivated (HyClone Laboratories Inc., Logan, UT, cat. SH30070.03HI), 50% L-WRN conditioned media (ATCC, cat. CRL-3276), 1.25 mM N-Acetyl-L-cysteine (Sigma-Aldrich, cat. A9165), 10 mM nicotinamide (Sigma-Aldrich, cat. N0636), 1X B-27 supplement (Thermo Fisher Scientific, cat. 17504044), 1X N-2 supplement (Thermo Fisher Scientific, cat. 17502048), 50 ng/mL human EGF (Thermo Fisher Scientific, cat. PHG0311), and 10 microM Y-27632 dihydrochloride (Tocris Bioscience, cat. 1254). The K12877-001-R-J1-PDC line was cultured in 6I media, which includes all 6C/Colon 1B media plus 10 ng/mL human FGF-10 (PeproTech, cat. 100-26), 1 ng/mL human FGF-2 (PeproTech, cat. 100-18B), 1 µM prostaglandin E2 (Tocris Bioscience, cat. 2296), […] hydrocortisone (Sigma-Aldrich, cat. H4001), and […] bovine insulin (Sigma-Aldrich, cat. I6634). The K86415-001-R-J1-PDC line was cultured in 6D media, which includes all 6C/Colon 1B media components minus the L-WRN conditioned media. The 485176-168-R4-J1-PDC was cultured in PANC media, which includes all 6C/Colon 1B media plus 100 ng/mL human FGF-10 (PeproTech, cat. 100-26), 500 nM SB-431542 (Selleckchem, cat. S1067), and 10 nM gastrin (Tocris Bioscience, cat. 3006). […]

[1] = compound alone, run of 07/15/2024
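Also: spheroids exposed to the agents for 7 days before readout.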
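For viability, T/C in this document: luminescence viability as percent of DMSO vehicle control wells.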

| IC50 [1] | IC50 (curve of compound) | SMILES | viability, T/C (compound 0.0316 µM) | viability, T/C (compound 0.1 µM) | viability, T/C (compound 0.316 µM) | viability, T/C (compound 1 µM) | viability, T/C (compound 10 µM) | viability, T/C (compound 0.00316 µM) | viability, T/C (compound 0.01 µM) | viability, T/C (compound 3.16 µM) | viability, T/C (compound 0.000316 µM) | viability, T/C (compound 0.001 µM) | viability, T/C (compound 0.000949 µM) | viability, T/C (compound 0.003 µM) | viability, T/C (compound 0.00949 µM) | viability, T/C (compound 0.03 µM) | viability, T/C (compound 0.0949 µM) | viability, T/C (compound 0.3 µM) |
| --- | --- | --- | --- | --- | --- | --- | --- | --- | --- | --- | --- | --- | --- | --- | --- | --- | --- | --- |
| 6.73 µM and > 10 µM and 9.19 µM | – | C#Cc1c(F)ccc2cc(O)cc(-c3ncc4c(N5CC6CCC(C5)N6)nc(OCC56CCCN5CC(F)C6)nc4c3F)c12 (configuration not stated) | 99.9% [middle of 8 runs] | 101% [middle of 8 runs] | 94.8% [middle of 8 runs] | 79.1% [middle of 8 runs] | 54.6% [middle of 8 runs] | – | – | – | – | – | – | – | – | – | – | – |
| > 1 µM | > 1 µM | C=CC(=O)N1CCN(c2nc(OCC3CCCN3C)nc3c(F)c(-c4nc(N)cc(C)c4C(F)(F)F)c(Cl)cc23)C(C)C1 (configuration not stated) | 102% [middle of 12 runs] | 102% [middle of 12 runs] | 102% [middle of 12 runs] | – | – | 104% [middle of 12 runs] | 108% [middle of 12 runs] | – | – | – | – | – | – | – | – | – |
| – | > 1 µM | C=CC(=O)Nc1cc(Nc2nccc(-c3cn(C)c4ccccc34)n2)c(OC)cc1N(C)CCN(C)C | 101% [middle of 4 runs] | 101% [middle of 4 runs] | 96.5% [middle of 4 runs] | 85.1% [middle of 4 runs] | – | 98.8% [middle of 4 runs] | 92.5% [middle of 4 runs] | – | – | – | – | – | – | – | – | – |
| – | > 10 µM | CC(C)NCC(C(=O)N1CCN(c2ncnc3c2C(C)CC3O)CC1)c1ccc(Cl)cc1 (configuration not stated) | 103% [middle of 4 runs] | 103% [middle of 4 runs] | 103% [middle of 4 runs] | 101% [middle of 4 runs] | 98.2% [middle of 4 runs] | – | – | 98.5% and 102% (2×) and 98.2% | – | – | – | – | – | – | – | – |
| – | 0.0539 µM and > 0.1 µM and 0.0758 µM | CC(C)n1nc(-c2ccc3oc(N)nc3c2)c2c(N)ncnc21 | 63.5% [middle of 4 runs] | – | – | – | – | 101% [middle of 4 runs] | – | – | 103% [middle of 4 runs] | 99.1% [middle of 4 runs] | – | – | – | – | – | – |
| – | 1.77 µM [middle of 4 runs] | CC(Nc1ccc2c(c1)OCCn1cc(N3C(=O)OCC3C(F)F)nc1-2)C(N)=O (configuration not stated) | 96.9% [middle of 4 runs] | 97.1% [middle of 4 runs] | – | 63.1% [middle of 4 runs] | 32.6% [middle of 4 runs] | – | – | 43.1% [middle of 4 runs] | – | – | – | – | – | – | – | – |
| – | > 0.3 µM | CC1(C)CCC(Nc2ncc(C(F)(F)F)c(-c3c[nH]c4c(P(C)(C)=O)c(C#N)ccc34)n2)CN1 (configuration not stated) | – | – | – | – | – | – | – | – | – | – | 104% [middle of 4 runs] | 98.7% [middle of 4 runs] | 107% [middle of 4 runs] | 101% [middle of 4 runs] | 104% [middle of 4 runs] | 108% [middle of 4 runs] |
| – | > 10 µM and 9.27 µM and 6.01 µM | CC1(O)CCCC1n1c(=O)c(C(F)F)cc2cnc(NC3CCN(S(C)(=O)=O)CC3)nc21 (configuration not stated) | 103% (2×) and 94% and 97.4% | 104% [middle of 4 runs] | 89.9% [middle of 4 runs] | – | – | – | – | 68.3% [middle of 4 runs] | – | – | – | – | – | – | – | – |
| – | 4.62 µM [middle of 4 runs] | CCC(CC)c1cc(NC2CCC(N)C2)n2nccc2n1 (configuration not stated) | 106% [middle of 4 runs] | 94% and 100% and 104% (2×) | 101% [middle of 4 runs] | 94.1% [middle of 4 runs] | 3.99% [middle of 4 runs] | – | – | 74.8% [middle of 4 runs] | – | – | – | – | – | – | – | – |
